Data on 13 compounds can be found in patent US6281356A, “Substituted pyrroles” (Hoffmann-La Roche Inc., priority 2000, dated 2001).

Bounds are passed on as bounds.

This experiment deals with epithelial breast carcinoma cell line (MDAMB-435). The experiment can be described thus: Antiproliferative activity (growth inhibition, MTT), epithelial breast carcinoma cell line MDAMB-435. In kind it is cell-based. To be noted: Homo sapiens, MDA-MB-435, 120 h, 5 days post drug addition, 0.1% DMSO, read-out: IC50 (growth inhibition of MDAMB-435 cells). As for the experimental part: The epithelial breast carcinoma cell line (MDAMB-435) was purchased from ATCC (American Type Cell Culture Collection) and was grown in culture medium as recommended by ATCC. For analysis of the effect of various compounds of formula I on the growth of these cells, the cells were plated at a concentration of 1500 cells/well in a 96 well tissue culture plate ("test plate"). The day after the cells were plated, the compounds to be analyzed were dissolved in 100% DMSO (dimethyl sulfoxide) to yield at 10 mM stock solution. Each compound was diluted in H2 O to 1 mM and was added to triplicate wells in the first row of a 96 well master plate containing medium to yield a final concentration of 40 μM. The compounds were then serially diluted in medium in the "master plate". The diluted compound(s) were then transferred to test plates containing cells. A row of vehicle "control cells" received DMSO. The final concentration of DMSO in each well was 0.1%. 5 days post drug addition, the plate was analyzed as described below.
MTT (3-(4-5 methyl thiazole-2-yl)-2,5-diphenyl tetrazolium bromide; thiazolyl blue) was added to each well to yield a final concentration of 1 mg/ml. The plate was then incubated at 37° C. for 21/2-3 hours. The MTT-containing medium was then removed and 50 μl of 100% ethanol was added to each well to dissolve the formazan. The absorbences were then read using an automated plate reader (Bio-tek microplate reader). IC50 s were calculated using the Reed and Munsch equation, see Am. J. Hygiene Vol. 27 pgs. 493-497,1938.
In the case of `Cn1cc(C2=C(c3cn(C)c4cc(C(F)(F)F)ccc34)C(=O)NC2=O)c2ccc(N3CCCC3)cc21` [Example 14h, 3-(1-Methyl-6-pyrrolidin-1-yl-1H-indol-3-yl)-4-(1-methyl-6-trifuloromethyl-1H-indol-3-yl)pyrrole-2,5-dione], the half-inhibitory concentration (IC50) was 80 nM.

Consider `Cn1cc(C2=C(c3cn(C)c4cc(N5CCOCC5)ccc34)C(=O)NC2=O)c2ccccc21` [Example 11, 3-(1-Methyl-1H-indol-3-yl)-4-(1-methyl-6-morpholin-4-yl-1H-indol-3-yl)pyrrole 2,5-dione], for which the half-inhibitory concentration (IC50) came out at 20 nM. The figure for `Cc1ccc2c(C3=C(c4cn(C)c5cc(N6CCOCC6)ccc45)C(=O)NC3=O)cn(C)c2c1` [Example 12b, 3(1,6-Dimethyl-1H-indol-3-yl)-4-(1-methyl-6-morpholin-4-yl-1H-indol-3-yl)pyrrole-2,5-dione] is under 10 nM.

With `Cn1cc(C2=C(c3cn(C)c4cc(N5CCOCC5)ccc34)C(=O)NC2=O)c2ccc(F)cc21` [Example 14b, 3-(6-Fluoro-1-methyl-1H-indol-3-yl)-4-(1-methyl-6-morpholin-4-yl-1H-indol-3-yl)pyrrole-2,5-dione], the IC50 is 30 nM. Turning to `Cn1cc(C2=C(c3cn(C)c4cc([N+](=O)[O-])ccc34)C(=O)NC2=O)c2ccc(N3CCOCC3)cc21` [Example 12a, 3-(1-Methyl-6-morpholin-4-yl-1H-indol-3-yl)-4-(1-methyl-6-nitro-1H-indol-3-yl)pyrrole-2,5-dione], the IC50 is under 10 nM. As for `Cn1ccnc1-c1ccc2c(C3=C(c4cn(C)c5ccccc45)C(=O)NC3=O)cn(C)c2c1` [Example 4b, 3-(1-Methyl-1H-indol-3-yl)-4-[1-methyl-6-(1-methyl-1H-imidazol-2-yl)-1H-indol-3-yl]-pyrrole-2,5-dione], the IC50 is 60 nM.

Take `Cn1cc(C2=C(c3cn(C)c4cc(-n5ccnc5)ccc34)C(=O)NC2=O)c2ccc(C#N)cc21` [Example 10b, 3-[4-(6-Imidazol-1-yl-1-methyl-1H-indol-3-yl)-2,5-dioxo-2,5-dihydro-1H-pyrrole-3-yl]-1-methyl-1H-indole-6-carbonitrile]: the IC50 was found to be 30 nM.

As for `Cn1nccc1-c1ccc2c(C3=C(c4cn(C)c5cc(Br)ccc45)C(=O)NC3=O)cn(C)c2c1` [Example 2l, 3-(6-Bromo-1-methyl-1H-indol-3-yl)-4-[1-methyl-6-(2-methyl-2H-pyrazol-3yl)-1H-indol-3-yl]pyrrole-2,5-dione], the IC50 was found to be 70 nM. As for `Cn1cc(C2=C(c3cn(C)c4cc([N+](=O)[O-])ccc34)C(=O)NC2=O)c2ccc(OCCn3ccnc3)cc21` [Example 17, 3-[6-(2-Imidazol-1-yl-ethoxy)-1-methyl-1H-indol-3-yl]-4-(1-methyl-6-nitro-1H-indol-3-yl)pyrrole-2,5-dione], the figure is 70 nM; as for `COCn1cc(C2=C(c3cn(C)c4cc([N+](=O)[O-])ccc34)C(=O)NC2=O)c2ccc(N3CCCC3)cc21` [Example 12g, 3-(1-Methoxymethyl-6-pyrrolidin-1-yl-1H-indol-3-yl)-4-(1-methyl-6-nitro-1H-indol-3-yl)pyrrole-2,5-dione], 20 nM; as for `Cn1cc(C2=C(c3c[nH]c4cc(N5CCCC5)ccc34)C(=O)NC2=O)c2ccc(Cl)cc21` [Example 12f, 3-(6-Chloro-1-methyl-1H-indol-3-yl)-4-(6-pyrrolidin-1-yl-1H-indol-3-yl)pyrrole-2,5-dione], under 3 nM. As for `Cn1cc(C2=C(c3c[nH]c4ccccc34)C(=O)NC2=O)c2ccc(-c3ccco3)cc21` [Example 2i, 3-(6-Furan-2-yl-1-methyl-1H-indol-3-yl)-4-(1H-indol-3-yl)pyrrole-2,5-dione], the figure is 30 nM; as for `Cn1cc(C2=C(c3cn(C)c4cc(N5CCCC5)ccc34)C(=O)NC2=O)c2ccc(Cl)cc21` [Example 14i, 3-(6-Chloro-1-methyl-1H-indol-3-yl)-4-(1-methyl-6-pyrrolidin-1-yl-1H-indol-3-yl)pyrrole-2,5-dione], 10 nM.

The IC50 is the concentration that gives 50% inhibition.
